Test: Effects of age and gender on PK parameters, 2×400 mg data from studies 103 and 105, fed and fasted
Settings: human, in vivo
From the text: This analysis considers the effects of age and gender on three pharmacokinetic (PK) parameters of metaxalone under fed and fasted conditions. The three parameters are: • Cmax: the observed maximum plasma concentration (ng/mL); • AUC(last): the area under the curve (AUC) to the last quantifiable concentration, as measured by the trapezoidal rule (ng-hr/mL); • AUC(inf): the AUC extrapolated to infinity (ng-hr/mL).
Because the distributions of these parameters tend to be skewed, and in accordance with generally accepted practice, all analyses are carried out after computing the natural logarithm (ln) of the values of the PK parameters from individual subjects.
The report is based primarily on two similarly designed studies in which PK parameters were determined under fed and fasted conditions for the 2×400 mg dose of metaxalone: • Study AN151607-103 (hereafter referred to as the 103 study): a four-period, randomized crossover trial with treatment conditions 2×400 mg with food, 2×400 mg without food, 1×800 mg with food, 1×800 mg without food; and • Study ELN151607-105 (hereafter referred to as the 105 study): a two-period, randomized crossover trial with treatment conditions 2×400 mg with food and 2×400 mg without food.
Using the 2×400 mg data from studies 103 and 105, Section 2.2 presents the results of analyses of the effects of age on the fed values of Cmax, AUC(last), and AUC(inf). Section 2.3 similarly reports the results of analyses of fasted values of these parameters using the 2×400 mg data from these two studies. Section 2.4 repeats the analyses of Sections 2.2 and 2.3 using the data from the 1×800 mg treatment of study 103, in combination with the 2×400 mg data from study 105. Finally, Sections 2.5 and 2.6 report the results of similar analyses using the data from studies 101 and 106, respectively.
The primary results are based on the results of linear regression models investigating the effects of age on each PK parameter. Descriptive analyses reporting parametric (Pearson) and nonparametric (Spearman) correlation coefficients between age and each PK parameter are also provided. The Pearson correlation coefficient measures the extent of the linear association between two variables and is most appropriate when the data are approximately bivariate normally distributed with no outliers. The Spearman correlation coefficient is based on the ranks of the variables. It is less sensitive to outliers, but is often also a less sensitive measure of the strength of association.
In study 103, 59 subjects were administered the 2×400 mg dose under fed conditions. The mean age was 26.1 years, with a range from 18 to 50 years. (A total of 64 subjects began the study, of which the average age was 25.6 years. Five subjects were not included in the pharmacokinetic analysis.) In study 105, 44 subjects were administered the 2×400 mg dose under fed conditions. The mean age in study 105 was 56.0 years; with a range from 18 to 81 years.
First, in the combined group of 59+44=103 subjects, Pearson and Spearman correlation coefficients between age and each of the three PK parameters were computed. The correlation coefficients and two-sided p-values from the test of the null hypothesis of no association are shown below in TABLE IIIa:
Linear regression models using the natural logarithm of each of the three PK parameters as the dependent variable and age as the independent variable were fitted in order to estimate the magnitude of the associations with age.
In study 103, the same 59 subjects were administered the 2×400 mg dose under fasted conditions. Similarly, the 44 subjects from study 105 were administered the 2×400 mg dose under fasted conditions.
First, in the combined group of n=103 subjects, Pearson and Spearman correlations between age and each of the three PK parameters were computed. The correlation coefficients and two-sided p-values from the test of the null hypothesis of no association are shown below in TABLE IVa: […]

SMILES: Cc1cc(C)cc(OCC2CNC(=O)O2)c1 (stereo not shown) [metaxalone, 5-[(3,5-dimethylphenoxy)methyl]-2 oxazolidinone]
- Percentage increase in AUC(inf) from age 20 to age 70 (both): 74%
- Percentage increase in AUC(inf), 70-year-old vs 20-year-old (both): 95%
- Percentage increase in AUC(last) from age 20 to age 70 (both): 78%
- Percentage increase in AUC(last), 70-year-old vs 20-year-old (both): 98%
- Percentage increase in Cmax from age 20 to age 70 (both): 84%
- Percentage increase in Cmax, 70-year-old vs 20-year-old (both): 103%
- Pearson correlation coefficients age vs PK parameters, range in magnitude (female): 0.49-0.60
